Bounds are passed on as bounds.

The target in data set [1] is T1, human D2S receptor (Homo sapiens (Human), UniProt P14416). In words: Cell-based functional cAMP assay, antagonist signaling (reversal of quinpirole inhibition).
The target of data set [2] is T1, human D2S receptor. In words: Cell-based functional cAMP assay, agonist signaling (inhibition of forskolin-stimulated cAMP).
Data set [3] is described as follows: Rat PK study of the compound of Example 1. Type of data set: in vivo. The procedure: (§1) Surgically modified rats are housed one per cage, and supplied with water and a commercial rodent diet ad libitum prior to study initiation. Food is withheld from the animals for a minimum of twelve hours before and during the study, until four hours post-dose, at which time food is returned. Animals are dosed IV, SC and PO, and blood samples are collected following the study design in the following table. Blood samples (˜0.25 mL) are collected via JVC or tail vein, placed into chilled blood collection tubes containing sodium heparin as the anticoagulant, and kept on ice until centrifugation. Blood samples are then centrifuged at a temperature of 2 to 8° C., at 3,000 g, for 5 minutes. Drug levels in the plasma samples are quantified via HPLC with MS/MS detection. Pharmacokinetic parameters based on the group geomean concentration versus time data, are calculated using a noncompartmental pharmaceutical data analysis software PK Solutions 2.0 (Summit Research Services, Montrose, Colo.).

The target in another data set is SERT (Homo sapiens (Human), UniProt P31645). The data set can be described thus: Binding, SERT.
In the next data set the target is Mu opiate receptor (Homo sapiens (Human), UniProt P35372). In words: Receptor binding, Mu opiate receptor.
Data set [4] in a line: Rat PK studies of the compound of Example 3. Particulars: Study One, IV 1 mg/kg.
Data set [5] relates to patients with acute exacerbated schizophrenia. In words: Clinical studies of patients with acute exacerbated schizophrenia. Type of data set: in vivo. Particulars: once daily 60 mg P.O., up to 28 days. The text has this: Social avoidance can be a critical and debilitating symptom in patients suffering from anxiety disorders, especially social anxiety disorder, as well as in patients suffering from traumatic anxiety disorders. Social avoidance is often one of the key determinants of whether a person with a severe anxiety disorder is capable of maintaining familial relationships or employment relationships. […] Negative symptoms of schizophrenia can be divided into two categories: emotional experience (e.g., emotional withdrawal, passive social withdrawal, active social avoidance) and emotional expression (e.g., blunted effect, poor rapport, lack of spontaneity, and motor retardation). […] These are the symptoms that are most highly correlated with interpersonal functioning.

The nature of data set [6]: Rat PK study of the compound of Example 2. Type of data set: in vivo. The procedure:
as §1
This study is performed according to the same procedure as outlined in Example 5a, with the blood samples collected as shown in the table below.

In data set [7] the test system is patients with major depressive episodes. Particulars: 40-minute infusion, total dose 0.5 mg/kg, after 24 hours; cited from earlier work.

T1 sequence (P14416 other isoform, or with tags, fused parts or gaps): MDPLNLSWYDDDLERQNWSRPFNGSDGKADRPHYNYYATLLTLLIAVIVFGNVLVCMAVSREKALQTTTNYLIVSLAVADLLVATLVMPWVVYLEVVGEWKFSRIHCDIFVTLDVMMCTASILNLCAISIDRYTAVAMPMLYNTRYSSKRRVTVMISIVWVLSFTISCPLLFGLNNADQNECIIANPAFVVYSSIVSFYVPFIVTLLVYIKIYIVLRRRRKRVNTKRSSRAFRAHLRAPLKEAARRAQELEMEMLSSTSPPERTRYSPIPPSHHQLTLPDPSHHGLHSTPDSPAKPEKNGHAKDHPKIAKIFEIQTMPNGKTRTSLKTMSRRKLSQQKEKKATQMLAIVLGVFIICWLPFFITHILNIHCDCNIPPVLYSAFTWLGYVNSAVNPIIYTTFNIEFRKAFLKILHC
Mu opiate receptor, sequence (P35372 whole entry): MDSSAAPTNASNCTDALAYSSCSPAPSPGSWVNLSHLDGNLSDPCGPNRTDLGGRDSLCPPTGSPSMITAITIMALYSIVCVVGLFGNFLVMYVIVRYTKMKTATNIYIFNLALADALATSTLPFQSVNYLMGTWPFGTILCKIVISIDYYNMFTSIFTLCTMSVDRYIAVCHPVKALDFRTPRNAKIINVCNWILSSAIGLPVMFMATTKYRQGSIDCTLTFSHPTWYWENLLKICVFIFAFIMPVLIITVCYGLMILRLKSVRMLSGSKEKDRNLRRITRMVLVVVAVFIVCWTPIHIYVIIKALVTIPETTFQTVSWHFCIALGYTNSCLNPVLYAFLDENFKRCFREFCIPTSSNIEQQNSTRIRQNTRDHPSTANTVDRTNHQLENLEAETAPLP
SERT, sequence (P31645 whole entry): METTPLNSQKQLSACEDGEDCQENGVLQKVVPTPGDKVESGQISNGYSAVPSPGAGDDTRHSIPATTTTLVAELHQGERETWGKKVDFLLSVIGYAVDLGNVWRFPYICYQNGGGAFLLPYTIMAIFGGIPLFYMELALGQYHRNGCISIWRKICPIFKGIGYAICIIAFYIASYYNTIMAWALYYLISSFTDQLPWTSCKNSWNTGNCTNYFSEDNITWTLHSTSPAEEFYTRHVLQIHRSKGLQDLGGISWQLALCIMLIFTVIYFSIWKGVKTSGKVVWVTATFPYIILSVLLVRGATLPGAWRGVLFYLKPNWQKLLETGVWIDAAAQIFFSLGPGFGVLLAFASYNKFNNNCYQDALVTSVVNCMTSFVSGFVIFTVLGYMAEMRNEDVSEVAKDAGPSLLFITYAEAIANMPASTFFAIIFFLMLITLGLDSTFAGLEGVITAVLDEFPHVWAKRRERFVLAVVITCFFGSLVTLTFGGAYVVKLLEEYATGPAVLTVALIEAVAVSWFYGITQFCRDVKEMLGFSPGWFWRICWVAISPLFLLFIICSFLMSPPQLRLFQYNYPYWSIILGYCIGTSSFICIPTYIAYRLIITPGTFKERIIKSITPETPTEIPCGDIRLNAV

As to `CN1C(=O)CN2c3c(cccc31)[C@@H]1CN(CCCOc3ccc(F)cc3)CC[C@@H]12` [Compound 1, (6bR,10aS)-8-(3-(4-fluorophenoxy)propyl)-3-methyl-6b,7,8,9,10,10a-hexahydro-1H-pyrido[3′,4′:4,5]pyrrolo[1,2,3-de]quinoxalin-2(3H)-one], the “antagonist activity at the D2S receptor (in words)” value on human D2S receptor [1] is “antagonist activity”. The “agonist activity at the D2S receptor (in words)” value at human D2S receptor [2] is “no detectable agonist activity”. In addition, on human D2S receptor [2] (CHO-K1 hD2S, 10 μM forskolin), the “Agonist EC50” value is given as “no activity”. The t-1/2 in data set [3] (IV 1 mg/kg) worked out at 1.0 h. In data set [3] (plasma, IV 1 mg/kg), this compound displayed an AUC of 270 ng·h/mL, a Cmax of 505 ng/mL, a bioavailability of 100% and a concentration at 30 min of 116 ng/mL. In data set [3] (plasma, IV 1 mg/kg), this compound gave a concentration at 1 h of 70 ng/mL and a concentration at 6 h of 1.6 ng/mL. In data set [3] (plasma, PO 1 mg/kg), this compound returned an AUC of 22.6 ng·h/mL, a Cmax of 5 ng/mL, a bioavailability of 10% and a concentration at 30 min of 4.2 ng/mL. In data set [3] (plasma, PO 1 mg/kg), this compound displayed a concentration at 1 h of 2.9 ng/mL and a concentration at 6 h of 1.4 ng/mL. In addition, in [3] (plasma, SC 1 mg/kg), the AUC was 247 ng·h/mL, the Cmax worked out at 34 ng/mL, the bioavailability is 90% and the concentration at 30 min was determined as 23.6 ng/mL. In [3] (plasma, SC 1 mg/kg), the concentration at 1 h turned out to be 28.1 ng/mL, the concentration at 6 h was 12.8 ng/mL and the concentration at 24 h came out at 1.3 ng/mL.

Consider `O=C1CN2c3c(cccc3[C@@H]3CN(CCCOc4ccc(F)cc4)CC[C@@H]32)N1` [Formula A, (6bR,10aS)-8-(3-(4-fluorophenoxy)propyl)-6b,7,8,9,10,10a-hexahydro-1H-pyrido[3′,4′:4,5]pyrrolo[1,2,3-de]quinoxalin-2(3H)-one], for which, at SERT, the “SERT activity (in words)” value is “relatively weak SERT antagonist”. The “mu-opiate activity (in words)” value on Mu opiate receptor is “very strong mu-opiate antagonist”. The t-1/2 in data set [4] amounted to 1.1 h.

`CN1CCN2c3c(cccc31)[C@@H]1CN(CCCC(=O)c3ccc(F)cc3)CC[C@@H]12` [Formula B, 4-((6bR,10aS)-3-methyl-2,3,6b,9,10,10a-hexahydro-1H-pyrido-[3′,4′:4,5]-pyrrolo[1,2,3-de]quinoxalin-8-(7H)-yl)-1-(4-fluorophenyl)-1-butanone]: the “SERT activity (in words)” value on SERT is on record as “very strong SERT antagonist”. The “symptoms of emotional experience compared to placebo” value in data set [5] is “significant and unexpected improvement in symptoms of emotional experience”. Besides, the t-1/2 in data set [6] (IV 1 mg/kg) was 1.4 h. In [6] (plasma, IV 1 mg/kg), this compound registered an area under the curve (AUC) of 231 ng·h/mL, a bioavailability of 100%, a concentration at 30 min of 92.5 ng/mL and a concentration at 6 h of 3.1 ng/mL. In data set [6] (plasma, IV 1 mg/kg), this compound showed a concentration at 12 h of 0.5 ng/mL. In addition, in [6] (plasma, PO 10 mg/kg), the AUC was determined as 56 ng·h/mL, the concentration peaked (Cmax) at 13.8 ng/mL, the bioavailability is 2% and the concentration at 30 min amounted to 12.2 ng/mL. Moreover, in data set [6] (plasma, PO 10 mg/kg), the concentration at 1 h came out at 13.8 ng/mL, the concentration at 6 h stood at 1.5 ng/mL and the concentration at 12 h stood at 0.3 ng/mL. In data set [6] (plasma, SC 45 mg/kg), this compound yielded an AUC of 7630 ng·h/mL, a Cmax of 747 ng/mL, a bioavailability of 73% and a concentration at 30 min of 705 ng/mL. In data set [6] (plasma, SC 45 mg/kg), this compound had a concentration at 1 h of 700 ng/mL, a concentration at 6 h of 498 ng/mL, a concentration at 12 h of 168 ng/mL and a concentration at 24 h of 12.3 ng/mL. Besides, the “mu-opiate activity (in words)” value on Mu opiate receptor was “no mu-opiate activity”. In addition, the Ki on Mu opiate receptor (Mu opiate receptor, read-out: Ki (nM) or maximum inhibition) was over 10000 nM. In the data set with rat mPFC slices, the “glutamatergic neurotransmission (NMDA and AMPA receptor conductance)” value is “enhances glutamatergic neurotransmission”.

`CNC1(c2ccccc2Cl)CCCCC1=O` (centres unmarked) [ketamine]: the “ratings on the Hamilton Depression Rating Scale (HDRS) compared to placebo” value in data set [7] was “significantly improved ratings”.
